In paper PMC11148078, “Potent activity of polymyxin B is associated with long-lived super-stoichiometric accumulation mediated by weak-affinity binding to lipid A” (Nature Communications, 2024):
“Also recorded” adds a separate entry of the source. Bridge positions count the residues as written; N and C are the ends. Square brackets hold non-standard residues; d marks the D form. Peptide text beside a SMILES is read from it. * marks the point of attachment. ξ: configuration not given here. Hexanoyl(4ξ-Me) = CCC(C)CCC(=O)*; dOrn = NCCC[C@@H](N)C(=O)O; Orn = NCCC[C@H](N)C(=O)O

Legend:
wt-OMVs [1] = assay: SPR chaser analysis (residence time), wt-OMVs; type: binding, E. coli; settings: 25 °C, n≥3, (SD)
Description: (§1) The off-rate of the tightly bound fraction was estimated using a chaser analysis, where OMVs were pre-saturated with polymyxin B and then re-saturated after an extended time interval (Supplementary Information Fig. S11A). […] A t1/2 of >6 h was determined for polymyxin B binding to OMVs at both 25 and 37 °C (SI Table S3). The t1/2 of brevicidine, also measured by chaser analysis, was approximately 1 h on both wt-OMVs and polymyxin-resistant-OMVs (SI Table S3).
(§2) Binding and kinetic analysis of SPR-OMV assays […]
To determine the residence time of the test compound with OMVs, the ‘chaser method’ was used because it accounts for drift that can occur in the system over long incubation times 13. OMVs were loaded onto the chip as described above then 5 µM polymyxin B was injected using the ‘low-sample consumption’ setting for 300 sec ([…] flow rate), followed by a 240 sec dissociation time. A second dose of 5 µM polymyxin B was then injected for 60 sec ([…]) to assure saturation followed by a 2 h dissociation time prior to the ‘chaser’, a 60 sec pulse of 5 µM polymyxin B. The RUs of associated polymyxin B were determined 120 sec after the start of the dissociation. The change in RUs from before dosing to after the second dose, and the change in RUs from prior to the ‘chaser’ dose and 120 sec after the start of its dissociation were used to calculate the fraction occupancy of the material and the residence time/half-life as described 13. […]
PMBN) to LPS for 20 min. […]
20 sec with a Solarus plasma cleaner (Gatan). Grids were blotted and plunge-frozen by Vitrobot (ThermoFisher Scientific, Waltham, MA) at 4°C, 100% relative humidity, blot force 7, and a 3 sec […]
TEM data collection was performed using a Titan Krios G3i (ThermoFisher Scientific, Waltham, MA) operating at 300 kV equipped with a BioQuantum energy filter and a K3 Summit direct electron detector operating at a nominal magnification of 105,000x (0.838 Å/pixel), an energy slit width of 20 eV, defocus range -1 to -3 μm, 3-sec exposure time, 60 frames per movie, a total electron fluence of ~64 e/Å2. Microscope and camera automation was accomplished by SerialEM14, and image processing (motion correction & CTF estimation) was performed using […]
(§3) Standard cryo-EM image processing software and methods were incompatible with the vesicle images, so a blinded visual scoring method for image analysis was used. Approximately 50 images from each sample and treatment condition that each contained at least one OMV (pooled in a single folder and blinded) were scored for number of vesicles touching (0-10+), and if the vesicle membranes appeared disrupted or abnormal. Sampling was not completely random as images of vesicles could not be obtained from areas with significant clumping. Images shown in […]

E. coli WT+rifampicin = assay: Rifampicin potentiation / outer membrane permeability, wild-type E. coli; type: cell-based; settings: rifampicin 1.56 µM; LB + 0.0005% tween-80, overnight 37 °C
Description: (§4) Bacterial strains and plasmids are listed in SI Table S5. LB growth media was prepared according to manufacturer’s instructions and supplemented with 0.2% arabinose and carbenicillin (50 μg/mL) for the strains containing pBAD24-mcr1 plasmid. Cultures were started by inoculating 3 ml LB with 1–2 colonies from fresh overnight plates and grown at 37 °C until in log phase. Modified minimal inhibitory concentration (MIC) assays were performed in 96-well round bottom polystyrene plates (Corning) with a final volume of 100 µl in LB supplemented with tween-80 at 0.0005%. […] Polymyxin B sulfate (TCI Co. Ltd), polymyxin B nonapeptide (PMBN) (Sigma), and brevicidine (Genentech) were diluted directly in the assay plates. Bacteria were diluted in LB with tween-80 0.0005% and added to a final OD600 of 0.0005. Growth was measured via OD600 on a SpectraMax M5 plate reader after overnight static growth at 37 °C with humidity.

resistant-OMVs = assay: SPR chaser analysis (residence time), resistant-OMVs; type: binding, E. coli
Description: as §1, §2
To determine the residence time of the test compound with OMVs, the ‘chaser method’ was used because it accounts for drift that can occur in the system over long incubation times 13. […] A second dose of 5 µM polymyxin B was then injected for 60 sec ([…]) to assure saturation followed by a 2 h dissociation time prior to the ‘chaser’, a 60 sec pulse of 5 µM polymyxin B. The RUs of associated polymyxin B were determined 120 sec after the start of the dissociation. […]
as §3, with “abnormal.” for “abnormal. Sampling was not completely random as images of vesicles could not be obtained from areas with significant clumping. Images shown in”

[2] = test system: E. coli PmrA^G53E+rifampicin; assay: Rifampicin potentiation / outer membrane permeability, E. coli PmrA^G53E; type: cell-based
Description: as §4

E. coli mcr-1+rifampicin = assay: Rifampicin potentiation / outer membrane permeability, E. coli mcr-1; type: cell-based
Description: as §4

wt-OMVs [3] = assay: Single-cycle kinetic SPR binding to immobilized wt-OMVs; set-up: species or system E. coli; settings: serial doubling injections, C1 chip
Description: (§5) Polymyxin B was covalently attached to a C1 chip (Series S Sensor Chip C1, Cytiva) using an amine coupling kit (Cytiva). Cartoon in Fig. 1A created with BioRender (biorender.com). Briefly, equal amounts of reagents N-hydroxysuccinimide and 1-ethyl-3-(3-dimethylaminopropyl) carbodiimide hydrochloride were mixed as per manufacturer’s instructions and immediately added to the gold chip surface for 2 min, washed with distilled deionized water, and dried. Sufficient polymyxin B (1 mM in 1 M HEPES buffer, pH 8) was added to cover the chip surface, incubated at room temperature for 1 h, washed as before, and then incubated with 1 M ethanolamine hydrochloride-NaOH, pH 8.5, for 1 min. The chip surface was washed with water, dried as previously described, immediately loaded into a Biacore S200, and primed with running buffer (described below) to equilibrate the system. C1 chips were used for multiple runs and discarded upon removal from the Biacore S200.
(§6) SCK C1-chip SPR experiments were performed in running buffer (Dulbecco’s phosphate-buffered salt solution 1x without calcium or magnesium (Fisher Scientific), pH 7.4, with 0.0005% tween-80 (Sigma) passed through a 0.2 µm filter) unless otherwise indicated. Inclusion of tween-80 prevented loss of polymyxin to the plastics[34] (also see Supplementary Information Methods). For experiments with brevicidine, which was suspended in DMSO, 0.125% DMSO was included in the running buffer. OMVs were diluted from frozen stocks to approximately 20–30 µg/ml protein in the OMV buffer. Capture of OMVs was performed at a low flow rate ([…]) for 300 s over the test channel(s) followed by a 300 s stabilization period. All subsequent steps were at a flow rate of […]. For single cycle kinetics, two-fold dilutions were injected over the channel(s) loaded with OMVs and a reference channel without OMVs for 30 s contact and 480 s dissociation. To regenerate chips, 0.5% SDS (desorb 1, Cytiva) was injected into all channels for 60 s at 30 µl/ml twice, with an extra buffer wash and four carry-over control steps to prevent residual SDS from disrupting the following cycle.
All single-cycle kinetic SPR traces shown were double-referenced (unless indicated) within the Biacore S200 Evaluation Software 1.0, exported as a.txt file, and imported (decimated) into GraphPad Prism (version 9.3.1 for Mac, GraphPad Software, San Diego, CA). For clarity, in some cases individual outlier data points (at buffer transitions) were removed when this would not change the overall data or conclusions.

[4] = test system: resistant-OMVs (E. coli PmrA^G53E); assay: Single-cycle kinetic SPR binding to immobilized resistant-OMVs; settings: serial doubling injections, C1 chip
Description: as §5
as §6, with “To regenerate chips, 0.5% SDS (desorb 1, Cytiva) was injected into all channels for 60 s at 30 µl/ml twice, with an extra buffer wash and four carry-over control steps to prevent residual SDS from disrupting the following cycle.” left out

S. aureus WT = type: cell-based; settings: LB + 0.0005% tween-80, overnight 37 °C
Description: as §4

E. coli mcr1 = type: cell-based; settings: pBAD-mcr-1
Description: as §4

E. coli PmrA^G53E = type: cell-based
Description: as §4

Question: For `CCC(C)CCC(=O)N[C@H](CC(N)=O)C(=O)N[C@H](Cc1ccc(O)cc1)C(=O)N[C@H](Cc1c[nH]c2ccccc12)C(=O)N[C@H](CCCN)C(=O)N[C@@H](CCCN)C(=O)NCC(=O)N[C@H](CCCN)C(=O)N[C@@H](Cc1c[nH]c2ccccc12)C(=O)N[C@@H]1C(=O)N[C@@H]([C@@H](C)CC)C(=O)NCC(=O)N[C@@H](CO)C(=O)O[C@@H]1C` (stereo partly drawn) [Brevicidine] ({Hexanoyl(4ξ-Me)}-[dN][dY][dW][dOrn][Orn]G[dOrn]WTIGS; ester 9-C; N-terminus assumed), which t1/2 (wt-OMVs [1]) is on record?
Answer: The t1/2 was 1.09 (0.20) h.

Question: And the “MIC in presence of rifampicin” value (E. coli WT+rifampicin)?
Answer: The value was 0.078 µM.

Question: What about the t1/2 (resistant-OMVs; 25 °C, OMVs from PmrA^G53E and pmcr1 strains (n=2 each), (SD)) of the same compound?
Answer: Its t1/2 is 1.17 (0.57) h.

Question: And the “t1/2 of bound complex” value (resistant-OMVs; polymyxin-resistant-OMVs)?
Answer: The value was “approximately 1 h”.

Question: What about the “MIC in presence of rifampicin” value [2] of the same compound?
Answer: Its value is 0.078 µM.

Question: And the “MIC in presence of rifampicin” value (E. coli mcr-1+rifampicin)?
Answer: Its value is 0.078 µM.

Question: What about the “SPR binding profile” value (wt-OMVs [3]) of the same compound?
Answer: The value was “accumulation of a tightly bound species and a superimposed saw-tooth profile”.

Question: What about the “SPR binding profile” value [4] of the same compound?
Answer: The value was “indistinguishable from its binding to wt-OMVs; also recorded: identical response to wt-OMVs and resistant-OMVs”.

Question: And the MIC (S. aureus WT)?
Answer: Its MIC is greater than 40 µM.

Question: What about the “antibacterial activity” value (E. coli mcr1) of the same compound?
Answer: Its value is “exhibits antibacterial activity against strains with polymyxin-resistant lipid A modifications”.

Question: And the “antibacterial activity” value (E. coli PmrA^G53E)?
Answer: Its value is “exhibits antibacterial activity against strains with polymyxin-resistant lipid A modifications”.

Question: Which “SPR binding profile” value (wt-OMVs [3]) does the source give for Colistin here?
Answer: The value was “dominated by the accumulation of tightly bound polymyxin B and a superimposed saw-tooth profile associated with transient binding”.
